The values below come from US8969554B2, “6-acyl-1,2,4-triazine-3,5-dione derivative and herbicides” (Kumiai Chemical Industry Co., Ltd., priority 2010, dated 2015).

What all share (assay type): in vivo
What all share (design):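 index 0 to 10 in 10% steps of herbicidal effect with 10 meaning complete death and 0 below 10%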

Assay [1] deals with A. retroflexus. Nature of the assay: Herbicidal activity by field foliage treatment (Test example 3). The settings on record: 1000 g effective component per hectare, day 14 after the treatment. Here is the method:
(§1) [table] Test for Determining Herbicidal Activity by Field Foliage Treatment A 80 cm^2 wide plastic pot was filled with a field soil and seeds of each of Indian millet and A. retroflexus were sowed and then incubated for 2 weeks in a green house. The wettable powder produced with reference to the Formulation example 1 was diluted water, and applied from the air to entire body of the plant as foliage treatment by using a small sprayer in an amount of 1000 liters per hectare so that the effective component is 1000 g per hectare. After that, the plants were cultivated in a greenhouse, and on day 14 after the treatment, evaluation was made by the criteria described in Table 72 for determining the herbicidal effects.

Assay [2] deals with Indian millet. Described as above. The following applies: 1000 g effective component per hectare, day 14 after the treatment. Here is the method:
as §1

Assay [3] relates to Monochoria vaginalis. Nature of the assay: Herbicidal activity by paddy field soil treatment (Test Example 1). The following applies: 1000 g of effective component per hectare, evaluated on day 21 after the treatment, criteria of Table 72. As to the method: (§2) Test for Determining Herbicidal Activity by Paddy Field Soil Treatment A 100 cm^2 wide plastic pot was filled with a paddy field soil and, after watering and shuffling, seeds of each of Echinochloa oryzicola, Monochoria vaginalis, and Scirpus juncoides Rocxb. were sowed and watered to a depth of 3 cm. On the next day, the wettable powder obtained in view of Formulation example 1 was diluted with water and applied on water surface. The application amount was 1000 g of effective component per hectare. After that, the plants were cultivated in a greenhouse, and on day 21 after the treatment, evaluation was made by the criteria of Table 72 for determining the herbicidal effects. [table]

Assay [4] deals with Scirpus juncoides Rocxb. Described as above. The settings on record: applied on water surface, 1000 g of effective component per hectare, day 21 after the treatment. Here is the method: as §2
Assay [5] deals with A. retroflexus. Nature of the assay: Herbicidal activity by field soil treatment (Test example 2). The settings on record: 1000 g effective component per hectare, day 21 after the treatment. As to the method:
(§3) [table] Test for Determining Herbicidal Activity by Field Soil Treatment A 80 cm^2 wide plastic pot was filled with a field soil and seeds of each of Echinochloa crus-galli, foxtail, Indian millet, and A. retroflexus were sowed and then covered with soil. The wettable powder produced with reference to the Formulation example 1 was diluted water, and applied on the soil surface by using a small sprayer in an amount of 1000 liters per hectare so that the effective component is 1000 g per hectare. After that, the plants were cultivated in a greenhouse, and on day 21 after the treatment, evaluation was made by the criteria described in Table 72 for determining the herbicidal effects.

The subject of assay [6] is Indian millet. Described as above. The following applies: 1000 g effective component per hectare, day 21 after the treatment. Here is the method: as §3
Assay [7] relates to Echinochloa oryzicola. Nature of the assay: Herbicidal activity by paddy field soil treatment (Test Example 1). The settings on record: 1000 g of effective component per hectare, evaluated on day 21 after the treatment, criteria of Table 72. As to the method:
as §2

For assay [8], the system named is Echinochloa crus-galli. Nature of the assay: Herbicidal activity by field foliage treatment (Test example 3). The following applies: 1000 g effective component per hectare, day 14 after the treatment. Here is the method:
as §1, with “Test example 3” for “[table]”

On to `Cn1nc(C(=O)C2=C(O)CCCC2=O)c(=O)n(CS(C)(=O)=O)c1=O` [Compound I-47], for which the “herbicidal effect index, Amaranthus retroflexus” value in assay [1] and in assay [5] was 10 throughout. Moreover, in assay [2], the “herbicidal effect index, Abutilon theophrasti” value came out at 9. For the same compound, the “Herbicidal effects index number, Monochoria vaginalis” value in assay [3] turned out to be 10. Also, the “herbicidal effect index, S. juncoides Rocxb.” value in assay [4] came out at 10.

Consider `COc1ccc(-n2c(=O)c(C(=O)C3=C(O)CCCC3=O)nn(C)c2=O)cc1` [Compound I-62], for which, in assay [1], the “herbicidal effect index, Amaranthus retroflexus” value was found to be 10. Also, the “herbicidal effect index, Abutilon theophrasti” value in assay [2] came to 9. Also, the “Herbicidal effects index number, Monochoria vaginalis” value in assay [3] turned out to be 8.

On to `COc1cc(OC)cc(-n2c(=O)c(C(=O)C3=C(O)CCCC3=O)nn(C)c2=O)c1` [Compound I-94], for which the “herbicidal effect index, Amaranthus retroflexus” value in assay [1] and in assay [5] was 10 in each case. Also, the “herbicidal effect index, Abutilon theophrasti” value in assay [2] and in assay [6] was 10 throughout. The “Herbicidal effects index number, Monochoria vaginalis” value in assay [3] is given as 10. Also, in assay [4], the “herbicidal effect index, S. juncoides Rocxb.” value came out at 10.

For the compound `Cn1nc(C(=O)C2=C(O)CCCC2=O)c(=O)n(N2CCS(=O)(=O)CC2)c1=O` [I-204], in assay [1], the “herbicidal effect index, Amaranthus retroflexus” value is given as 7. The “Herbicidal effects index number, Monochoria vaginalis” value in assay [3] turned out to be 8.

On to `Cn1nc(C(=O)C2=C(O)CCCC2=O)c(=O)n(Cc2ccccc2)c1=O` [I-205], for which, in assay [1], the “herbicidal effect index, Amaranthus retroflexus” value came out at 10. For the same compound, in assay [2], the “herbicidal effect index, Abutilon theophrasti” value was 10. Besides, the “Herbicidal effects index number, Monochoria vaginalis” value in assay [3] is recorded as 10. Moreover, the “Herbicidal effects index number, Echinochloa oryzicola” value in assay [7] worked out at 7. Also, the “herbicidal effect index, S. juncoides Rocxb.” value in assay [4] worked out at 10.

`O=C1CCCC(O)=C1C(=O)c1nn(-c2ccccc2)c(=O)n(-c2ccccc2)c1=O` [I-262]: the “Herbicidal effects index number, Monochoria vaginalis” value in assay [3] came to 8.

In the case of `Cn1nc(C(F)(F)F)cc1-n1c(=O)c(C(=O)C2=C(O)CCCC2=O)nn(C)c1=O` [I-272], the “herbicidal effect index, Echinochloa crus-galli” value in assay [8] came out at 6. In addition, the results for the “herbicidal effect index, Amaranthus retroflexus” value in assay [1] and in assay [5] were 10 and 8, respectively. Besides, in assay [2], the “herbicidal effect index, Abutilon theophrasti” value amounted to 9. In addition, the “Herbicidal effects index number, Monochoria vaginalis” value in assay [3] is recorded as 8. In assay [7], the “Herbicidal effects index number, Echinochloa oryzicola” value came out at 7. Also, the “herbicidal effect index, S. juncoides Rocxb.” value in assay [4] came to 8.

As to `C=Cc1ccc(-n2c(=O)c(C(=O)C3=C(O)CCCC3=O)nn(C)c2=O)nc1` [I-293], the “herbicidal effect index, Amaranthus retroflexus” value in assay [1] turned out to be 10. The “herbicidal effect index, Abutilon theophrasti” value was 8 in assay [2] and 10 in assay [6]. In addition, in assay [3], the “Herbicidal effects index number, Monochoria vaginalis” value is 10. Moreover, the “herbicidal effect index, S. juncoides Rocxb.” value in assay [4] is 10.

With `CCCCCCCCn1c(=O)c(C(=O)C2=C(O)CCCC2=O)nn(C)c1=O` [I-295], the “herbicidal effect index, Amaranthus retroflexus” value in assay [1] is given as 8. For the same compound, the “herbicidal effect index, Abutilon theophrasti” value in assay [2] is reported as 9.

As to `Cn1nc(C(=O)C2=C(O)CCCC2=O)c(=O)n(-c2cc(Cl)c(S(C)(=O)=O)c(Cl)c2)c1=O` [I-301], the “herbicidal effect index, Amaranthus retroflexus” value in assay [1] is given as 10. The “herbicidal effect index, Abutilon theophrasti” value in assay [2] amounted to 7. Moreover, the “Herbicidal effects index number, Monochoria vaginalis” value in assay [3] is given as 10. Also, the “Herbicidal effects index number, Echinochloa oryzicola” value in assay [7] is reported as 10. For the same compound, the “herbicidal effect index, S. juncoides Rocxb.” value in assay [4] is 10.

For the compound `CCCCn1c(=O)c(C(=O)C2=C(O)CCCC2=O)nn(-c2ccccn2)c1=O` [I-306], the figures for the “herbicidal effect index, Amaranthus retroflexus” value in assay [1] and in assay [5] were 7 and 10, respectively. The “herbicidal effect index, Abutilon theophrasti” value in assay [2] is recorded as 9; in assay [6] it was 7. The “Herbicidal effects index number, Monochoria vaginalis” value in assay [3] is given as 9.

For the compound `CCCCCn1nc(C(=O)C2=C(O)CCCC2=O)c(=O)n(-c2ccccc2)c1=O` [I-308], the “herbicidal effect index, Abutilon theophrasti” value in assay [2] is on record as 8. Also, the “Herbicidal effects index number, Monochoria vaginalis” value in assay [3] was found to be 8. Also, the “herbicidal effect index, Amaranthus retroflexus” value in assay [5] amounted to 10.

With `CN(c1ccccc1)n1c(=O)c(C(=O)C2=C(O)CCCC2=O)nn(C)c1=O` [I-466], the “herbicidal effect index, Amaranthus retroflexus” value in assay [1] came out at 10. Besides, in assay [2], the “herbicidal effect index, Abutilon theophrasti” value amounted to 10. Moreover, in assay [3], the “Herbicidal effects index number, Monochoria vaginalis” value was 10. Further, the “Herbicidal effects index number, Echinochloa oryzicola” value in assay [7] was found to be 8. Further, the “herbicidal effect index, S. juncoides Rocxb.” value in assay [4] is listed as 10.

Regarding `Cc1cc(C)nc(-n2c(=O)c(C(=O)C3=C(O)CCCC3=O)nn(C)c2=O)n1` [I-467], in assay [8], the “herbicidal effect index, Echinochloa crus-galli” value came to 8. Moreover, the “herbicidal effect index, Amaranthus retroflexus” value in assay [1] worked out at 10. The “herbicidal effect index, Abutilon theophrasti” value in assay [2] turned out to be 7. For the same compound, the “Herbicidal effects index number, Monochoria vaginalis” value in assay [3] came to 10. Besides, in assay [4], the “herbicidal effect index, S. juncoides Rocxb.” value was 10.

On to `Cc1cc(C)c(-n2c(=O)c(C(=O)C3=C(O)CCCC3=O)nn(C)c2=O)c(C)c1` [I-472], for which the “herbicidal effect index, Amaranthus retroflexus” value in assay [1] was 10. Further, the “herbicidal effect index, Abutilon theophrasti” value in assay [2] is listed as 7. Besides, the “Herbicidal effects index number, Monochoria vaginalis” value in assay [3] is reported as 10. Further, in assay [4], the “herbicidal effect index, S. juncoides Rocxb.” value was determined as 8.

For the compound `Cn1nc(C(=O)C2=C(O)CCCC2=O)c(=O)n(-c2c(F)c(F)c(F)c(F)c2F)c1=O` [I-473], the “herbicidal effect index, Amaranthus retroflexus” value in assay [1] amounted to 3. For the same compound, the “herbicidal effect index, Abutilon theophrasti” value in assay [2] is reported as 10. The “Herbicidal effects index number, Monochoria vaginalis” value in assay [3] turned out to be 10. The “Herbicidal effects index number, Echinochloa oryzicola” value in assay [7] was 8. The “herbicidal effect index, S. juncoides Rocxb.” value in assay [4] is given as 8.

As for `Cn1ncc(C(=O)c2nn(C)c(=O)n(-c3ccccc3)c2=O)c1O` [II-50, 6-(5-hydroxy-1-methyl-1H-pyrazole-4-carbonyl)-2-methyl-4-phenyl-1,2,4-triazine-3,5 (2H, 4H)-dione], the “herbicidal effect index, Amaranthus retroflexus” value in assay [1] is 10. Further, the “herbicidal effect index, Abutilon theophrasti” value in assay [2] was found to be 8. Further, the “Herbicidal effects index number, Monochoria vaginalis” value in assay [3] came to 8. Moreover, the “herbicidal effect index, S. juncoides Rocxb.” value in assay [4] is 7.

In the case of `CCCS(=O)(=O)Oc1c(C(=O)c2nn(C)c(=O)n(-c3ccccc3)c2=O)cnn1C(C)C` [II-267, 1-isopropyl-4-(2-methyl-3,5-dioxo-4-phenyl-2,3,4,5-tetrahydro-1,2,4-triazine-6-ylcarbonyl)-1H-pyrazole-5-yl propane-1-sulfonate], the “herbicidal effect index, Abutilon theophrasti” value in assay [2] is 9. In addition, the “Herbicidal effects index number, Monochoria vaginalis” value in assay [3] is 8.

For `COc1cccc(-n2c(=O)c(C(=O)O)nn(C)c2=O)c1` [V-61], the “herbicidal effect index, Abutilon theophrasti” value in assay [6] amounted to 8.

`Cc1ccc(-n2c(=O)c(C(=O)O)nn(C)c2=S)nc1` [V-291]: the “Herbicidal effects index number, Monochoria vaginalis” value in assay [3] is 8.

As for `CN(c1ccccc1)n1c(=O)c(C(=O)O)nn(C)c1=O` [V-359], the “herbicidal effect index, Amaranthus retroflexus” value in assay [1] came to 10. Further, in assay [2], the “herbicidal effect index, Abutilon theophrasti” value turned out to be 10. Also, in assay [3], the “Herbicidal effects index number, Monochoria vaginalis” value amounted to 10. Further, in assay [7], the “Herbicidal effects index number, Echinochloa oryzicola” value is recorded as 8. Moreover, in assay [4], the “herbicidal effect index, S. juncoides Rocxb.” value came to 10.

In the case of `Cc1cc(C)nc(-n2c(=O)c(C(=O)O)nn(C)c2=O)n1` [V-360], in assay [8], the “herbicidal effect index, Echinochloa crus-galli” value is on record as 8. The “herbicidal effect index, Amaranthus retroflexus” value in assay [1] was 10. Moreover, the “herbicidal effect index, Abutilon theophrasti” value in assay [2] is 7. Besides, the “Herbicidal effects index number, Monochoria vaginalis” value in assay [3] was determined as 10. For the same compound, the “herbicidal effect index, S. juncoides Rocxb.” value in assay [4] is 10.

As for `Cc1cc(C)c(-n2c(=O)c(C(=O)O)nn(C)c2=O)c(C)c1` [V-366], the “herbicidal effect index, Amaranthus retroflexus” value in assay [1] came to 10. The “herbicidal effect index, Abutilon theophrasti” value in assay [2] was found to be 7. Also, the “Herbicidal effects index number, Monochoria vaginalis” value in assay [3] came out at 10. In addition, in assay [4], the “herbicidal effect index, S. juncoides Rocxb.” value was 8.

Turning to `Cn1nc(C(=O)O)c(=O)n(-c2c(F)c(F)c(F)c(F)c2F)c1=O` [V-367], in assay [2], the “herbicidal effect index, Abutilon theophrasti” value is listed as 10. The “Herbicidal effects index number, Monochoria vaginalis” value in assay [3] is 10. In addition, the “Herbicidal effects index number, Echinochloa oryzicola” value in assay [7] was determined as 8. The “herbicidal effect index, S. juncoides Rocxb.” value in assay [4] is listed as 8.
